Measured values from ChEMBL document CHEMBL5576041, “13-oxyingenol dodecanoate derivatives induce mitophagy and ferroptosis through targeting TMBIM6 as potential anti-NSCLC agents” (Eur J Med Chem, 2024).
Calls of active or inactive are those of the source. The calls are words filed in the database; no cut-off is given here.

Columns and labels:
HepG2 = test: Antiproliferative activity against human HepG2 cells assessed as inhibition of cell growth incubated for 24 to 72 hrs by CCK8 assay; format: functional, cell-based
A549 [1] = test: Antiproliferative activity against human A549 cells assessed as inhibition of cell growth incubated for 24 to 72 hrs by CCK8 assay; format: functional, cell-based
NCI-H460 = test: Antiproliferative activity against human NCI-H460 cells assessed as inhibition of cell growth incubated for 24 to 72 hrs by CCK8 assay; format: functional, cell-based
[2] = Selectivity index, ratio of IC50 for cytotoxicity against human BEAS-2B cells to IC50 for antiproliferative activity against human A549 cells; format: toxicity, cell-based; settings: read-out: Ratio IC50
[3] = biological target: Bax inhibitor 1 (Homo sapiens) (UniProt P55061); test: Thermal stabilization of TMBIM6 in human A549 cells at 46 to 60 degreeC at 100 uM incubated for 2 hrs by CETSA based Western blot analysis; format: cell-based
[4] = biological target: Bax inhibitor 1 (Homo sapiens) (UniProt P55061); test: Thermal stabilization of TMBIM6 in human A549 cells at 54 to 60 degreeC at 100 uM incubated for 2 hrs by CETSA based Western blot analysis; format: cell-based
A549 [5] = test: Induction of autophagy in human A549 cells assessed as effect on PINK1 protein expression at 10 to 20 uM incubated for 24 hrs by Western blot analysis; format: functional, cell-based; settings: dose 10-20 µM
A549 [6] = test: Induction of autophagy in human A549 cells assessed as effect on LC3II protein expression at 10 to 20 uM incubated for 24 hrs by Western blot analysis; format: functional, cell-based; settings: dose 10-20 µM
A549 [7] = test: Induction of ferroptosis in human A549 cells assessed as reduction in GSH content incubated for 2 to 12 hrs; format: functional, cell-based; settings: time 2-12 hrs
A549 [8] = test: Induction of ferroptosis in human A549 cells assessed as increase in […] accumulation; format: functional, cell-based
A549 [9] = test: Induction of ferroptosis in human A549 cells assessed as increase in malondialdehyde content; format: functional, cell-based
A549 [10] = test: Activation of Nrf2-Keap1-HO-1 signaling pathway in human A549 cells assessed as increase in oxidative stress by measuring lipid ROS level at 10 to 20 uM by Western blot analysis; format: cell-based; settings: filed as activator, dose 10-20 µM
[11] = biological target: T1, Cystine/glutamate transporter (Homo sapiens) (UniProt Q9UPY5); test: Inhibition of SLC7A11 in human […] cells at 10 to 20 uM by Western blot analysis; format: cell-based; settings: A549, dose 10-20 µM
T1 sequence (whole entry): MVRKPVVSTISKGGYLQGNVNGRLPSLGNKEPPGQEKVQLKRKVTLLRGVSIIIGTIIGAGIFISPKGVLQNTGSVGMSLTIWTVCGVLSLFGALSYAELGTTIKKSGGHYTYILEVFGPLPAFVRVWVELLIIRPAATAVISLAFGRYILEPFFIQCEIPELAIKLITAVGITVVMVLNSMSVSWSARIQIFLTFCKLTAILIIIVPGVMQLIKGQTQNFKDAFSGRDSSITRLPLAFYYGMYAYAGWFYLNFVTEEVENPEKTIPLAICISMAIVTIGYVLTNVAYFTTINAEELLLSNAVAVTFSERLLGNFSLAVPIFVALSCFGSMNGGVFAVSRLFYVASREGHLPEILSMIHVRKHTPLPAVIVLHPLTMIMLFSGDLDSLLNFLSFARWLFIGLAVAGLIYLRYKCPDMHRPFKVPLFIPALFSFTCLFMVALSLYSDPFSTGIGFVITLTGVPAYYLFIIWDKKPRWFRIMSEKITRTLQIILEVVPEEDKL

Cell membrane [12] = test: Induction of mitochondrial membrane potential loss in human A549 cells at 10 to 20 uM incubated for 6 hrs by JC-1 staining based flow cytometric analysis; format: cell membranes; settings: dose 10-20 µM
Cell membrane [13] = test: Induction of mitochondrial membrane depolarization in human A549 cells assessed as increases in mitochondrial Ca2+ concentration by Rhod-2 AM probe based flow cytometric analysis; format: cell membranes
Cell membrane [14] = test: Induction of mitochondrial membrane depolarization in human A549 cells assessed as increases in mitochondrial Ca2+ concentration incubated for 8 hrs by Rhod-2 AM probe based flow cytometric analysis; format: cell membranes
A549 [15] = test: Induction of TMBIM6-VDAC1 protein-protein interaction in human A549 cells at 20 uM by immunoprecipitation analysis; format: cell-based; settings: filed as activator
A549 [16] = test: Downregulation of TMBIM6 protein expression in human A549 cells at 10 uM by Western blot analysis; format: functional, cell-based
A549 [17] = test: Increase in Ca2+ level in human A549 cell cytoplasm at 5 to 20 uM incubated for 8 hrs by confocal photographic analysis; format: functional, cell-based; settings: dose 5-20 µM
[18] = biological target: Non-selective voltage-gated ion channel VDAC1 (Homo sapiens) (UniProt P21796); test: Activation of VDAC1 channel in human A549 cells assessed as increase in mitochondrial Ca2+ endocytosis by staining based analysis; format: cell-based; settings: filed as opener
Sequence of Non-selective voltage-gated ion channel VDAC1 (Homo sapiens) (P21796 whole entry): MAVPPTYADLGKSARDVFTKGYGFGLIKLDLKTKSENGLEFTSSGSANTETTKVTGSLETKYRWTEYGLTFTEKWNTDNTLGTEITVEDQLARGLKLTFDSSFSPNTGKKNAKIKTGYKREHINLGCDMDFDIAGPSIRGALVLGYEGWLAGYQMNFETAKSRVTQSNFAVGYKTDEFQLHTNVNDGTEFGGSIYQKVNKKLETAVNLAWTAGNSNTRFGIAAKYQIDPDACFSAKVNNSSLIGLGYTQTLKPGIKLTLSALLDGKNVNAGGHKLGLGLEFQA

Sequence of Bax inhibitor 1 (Homo sapiens) (P55061 whole entry): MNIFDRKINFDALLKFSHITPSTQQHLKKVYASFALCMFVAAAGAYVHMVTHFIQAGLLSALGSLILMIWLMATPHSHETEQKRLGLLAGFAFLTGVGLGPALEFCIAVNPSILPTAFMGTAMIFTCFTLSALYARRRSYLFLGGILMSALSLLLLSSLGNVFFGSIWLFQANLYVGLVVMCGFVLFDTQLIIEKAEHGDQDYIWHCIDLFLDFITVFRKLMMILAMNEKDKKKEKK

SMILES | IC50 (HepG2) | IC50 (A549 [1]) | IC50 (NCI-H460) | also measured
CCCCCCCCCCCC(=O)O[C@@]12C[C@@H](C)[C@]34C=C(C)[C@H](OC(=O)c5ccc(-c6ccccc6)cc5)[C@@]3(O)[C@H](O)C(CO)=C[C@H](C4=O)[C@@H]1C2(C)C | > 50 µM | > 50 µM |  | 
C/C=C(/C)C(=O)O[C@H]1C(C)=C[C@]23C(=O)[C@@H](C=C(CO)[C@@H](O)[C@]12O)[C@H]1[C@@H](C[C@H]3C)C1(C)C [INGENOL MEBUTATE] | > 50 µM | > 50 µM | > 50 µM | 
CCCCCCCCCCCC(=O)O[C@@]12C[C@@H](C)[C@]34C=C(C)[C@H](OC(=O)NCCC)[C@@]3(O)[C@H](O)C(CO)=C[C@H](C4=O)[C@@H]1C2(C)C | 21.4 µM | 4.7 µM | 8.5 µM | selectivity ratio [2]: 10.6; Activity [3]: Active; Activity [4]: Active; Activity (A549 [5]): Active; Activity (A549 [6]): Active; Activity (A549 [7]): Active; Activity (A549 [8]): Active; Activity (A549 [9]): Active; Activity (A549 [10]): Active; inhibition [11]: Active; Activity (Cell membrane [12]): Active; Activity (Cell membrane [13]): Active; Activity (Cell membrane [14]): Active; Activity (A549 [15]): Active; Activity (A549 [16]): Active; Activity (A549 [17]): Active; Activity [18]: Active
CCCCCCCCCCCC(=O)O[C@@]12C[C@@H](C)[C@]34C=C(C)[C@H](OC)[C@@]3(O)[C@H](O)C(CO)=C[C@H](C4=O)[C@@H]1C2(C)C | 13.6 µM | 16.6 µM |  | 
CCCCCCCCCCCC(=O)O[C@@]12C[C@@H](C)[C@]34C=C(C)[C@H](OC(=O)c5ccc(Br)cc5)[C@@]3(O)[C@H](O)C(COC(=O)c3ccc(Br)cc3)=C[C@H](C4=O)[C@@H]1C2(C)C |  | > 50 µM | > 50 µM | 
CCCCCCCCCCCC(=O)O[C@@]12C[C@@H](C)[C@]34C=C(C)[C@H](OC(=O)c5ccccc5)[C@@]3(O)[C@H](O)C(CO)=C[C@H](C4=O)[C@@H]1C2(C)C | 14.5 µM | 23.8 µM |  | 
CCCCCCCCCCCC(=O)O[C@@]12C[C@@H](C)[C@]34C=C(C)[C@H](OC(=O)NCCCCCCCC)[C@@]3(O)[C@H](O)C(CO)=C[C@H](C4=O)[C@@H]1C2(C)C |  | 19.1 µM | 14.3 µM | 
CCCCCCCCCCCC(=O)O[C@@]12C[C@@H](C)[C@]34C=C(C)[C@H](OCC)[C@@]3(O)[C@H](O)C(CO)=C[C@H](C4=O)[C@@H]1C2(C)C | 13.6 µM | 27.2 µM | 45.8 µM | 
CCCCCCCCCCCC(=O)O[C@@]12C[C@@H](C)[C@]34C=C(C)[C@H](OC(=O)N5CCCC5)[C@@]3(O)[C@H](O)C(CO)=C[C@H](C4=O)[C@@H]1C2(C)C | 21.1 µM | 27.9 µM |  | 
CCCCCCCCCCCC(=O)O[C@@]12C[C@@H](C)[C@]34C=C(C)[C@H](OC(=O)NCCCC)[C@@]3(O)[C@H](O)C(CO)=C[C@H](C4=O)[C@@H]1C2(C)C | 10.3 µM | 25.6 µM | 9.7 µM | 
CCCCCCCCCCCC(=O)O[C@@]12C[C@@H](C)[C@]34C=C(C)[C@H](OC(=O)NCCCCC)[C@@]3(O)[C@H](O)C(CO)=C[C@H](C4=O)[C@@H]1C2(C)C | 1.7 µM | 32.8 µM | 5.4 µM | 
CCCCCCCCCCCC(=O)O[C@@]12C[C@@H](C)[C@]34C=C(C)[C@H](OC(=O)NCCCCCC)[C@@]3(O)[C@H](O)C(CO)=C[C@H](C4=O)[C@@H]1C2(C)C |  | 31 µM | 29 µM | 
CCCCCCCCCCCC(=O)O[C@@]12C[C@@H](C)[C@]34C=C(C)[C@H](OC(=O)NC5CC5)[C@@]3(O)[C@H](O)C(CO)=C[C@H](C4=O)[C@@H]1C2(C)C | 12.7 µM | 13.7 µM |  | 
CCCCCCCCCCCC(=O)O[C@@]12C[C@@H](C)[C@]34C=C(C)[C@H](OC(=O)c5ccc6ccccc6c5)[C@@]3(O)[C@H](O)C(CO)=C[C@H](C4=O)[C@@H]1C2(C)C | > 50 µM | > 50 µM |  | 
